SMILES strings stand for the structures.

Here are results for 15 compounds from patent publication US8450341B2, “Substituted indolin-2-one derivatives and their use as P38 mitogen-activated kinase inhibitors” (Almirall, S.A., priority 2008, dated 2013).

For this assay, the target named is T1, human p38alfa (SAPKa) enzyme (Homo sapiens, UniProt Q16539).
T1 construct: purchased University of Dundee
T1 sequence (Q16539 whole entry): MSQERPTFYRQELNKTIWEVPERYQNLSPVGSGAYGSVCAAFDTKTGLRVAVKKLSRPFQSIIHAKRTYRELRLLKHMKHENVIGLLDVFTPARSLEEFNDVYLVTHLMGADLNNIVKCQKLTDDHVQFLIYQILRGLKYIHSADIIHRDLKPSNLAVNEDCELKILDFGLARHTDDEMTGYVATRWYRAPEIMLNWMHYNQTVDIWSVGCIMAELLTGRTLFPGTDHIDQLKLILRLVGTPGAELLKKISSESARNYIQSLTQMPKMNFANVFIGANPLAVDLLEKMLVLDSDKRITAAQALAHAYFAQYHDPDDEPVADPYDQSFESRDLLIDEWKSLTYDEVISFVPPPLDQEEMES
In words: Inhibition assay: p38alfa enzymatic activity (FRET, biotinylated ATF2 substrate). The class given is biochemical. The conditions noted are these: 1 h pre-incubation; ATF2 0.62 μM and ATP 60 μM; 1 h at 25° C.; read-out: p38α IC50. The procedure: Various concentrations of the test compound or vehicle controls were pre-incubated for one hour with 0.055 μg/ml of the human p38alfa (SAPKa) enzyme (obtained from University of Dundee). […] Addition of the detection reagents, streptavidin-XL665 and anti-phosphoresidue antibody coupled to Europium cryptate, caused the juxtaposition of the cryptate and the XL665 fluorophore, resulting in fluorescence energy transfer (FRET). The FRET intensity depends on the amount of bounded cryptate antibody, which is proportional to the extent of substrate phosphorylation. FRET intensity was measured using Victor 2V spectrofluorometer.
Data were analyzed by non-linear regression (Hill equation) to generate a dose-response curve.
Regarding `Cc1ccc2c(NC3CC3)noc2c1-c1ccc2c(c1)NC(=O)C21CCOCC1` [Example 4, 6-(3-(Cyclopropylamino)-6-methylbenzo[d]isoxazol-7-yl)-2′,3′,5′,6′-tetrahydrospiro [indoline-3,4′-pyran]-2-one], the IC50 is 0.2 nM.
For the compound `Cc1ccc2c(N)noc2c1-c1ccc2c(c1)NC(=O)C2(C)C` [Example 15, 6-(3-Amino-6-methyl-1,2-benzisoxazol-7-yl)-3,3-dimethyl-1,3-dihydro-2H-indol-2-one], the IC50 stood at 38 nM.
For the compound `Cc1ccc2c(N)noc2c1-c1ccc2c(c1)NC(=O)C21CCC(F)(F)CC1` [Example 14, 6′-(3-Amino-6-methyl-1,2-benzisoxazol-7-yl)-4,4-difluorospiro[cyclohexane-1,3′-indol]-2′(1′H)-one], the IC50 stood at 1 nM.
For `Cc1ccn2c(NCC3CC3)nnc2c1-c1ccc2c(c1)NC(=O)C21CCCC1` [Example 20, 6′-(3-(cyclopropylmethylamino)-7-methyl-[1,2,4]triazolo[4,3-a]pyridin-8-yl)spiro[cyclopentane-1,3′-indolin]-2′-one], the IC50 worked out at 20 nM.
Regarding `Cc1ccc2c(N)noc2c1-c1ccc2c(c1)NC(=O)C21CCC(C)(O)CC1` (stereo not drawn) [Example 12, 6′-(3-amino-6-methylbenzo[d]isoxazol-7-yl)-4-hydroxy-4-methylspiro[cyclohexane-1,3′-indolin]-2′-one], the IC50 was 0.9 nM.
For `Cc1ccc2c(NC3CC3)noc2c1-c1cnc2c(c1)NC(=O)C21CCC(C)(O)CC1` (stereo not drawn) [Example 9, 6′-(3-(cyclopropylamino)-6-methylbenzo[d]isoxazol-7-yl)-4-hydroxy-4-methylspiro[cyclohexane-1,3′-pyrrolo[3,2-b]pyridin]-2′(1′H)-one] the value was 0.4 nM; for `O=C1Nc2cc(-c3cccc4c(NC5CC5)noc34)c(Cl)cc2C12CCCC2` [Example 3, 5′-Chloro-6′-(3-(cyclopropylamino)benzo[d]isoxazol-7-yl)spiro[cyclopentane-1,3′-indolin]-2′-one], 4 nM.
With `Cc1ccc2c(NC3CC3)noc2c1-c1cnc2c(c1)NC(=O)C21CCC(C)(O)CC1` (stereo not drawn) [Example 8, 6′-(3-(cyclopropylamino)-6-methylbenzo[d]isoxazol-7-yl)-4-hydroxy-4-methylspiro[cyclohexane-1,3′-pyrrolo[3,2-b]pyridin]-2′(1′H)-one], the IC50 worked out at 0.65 nM.
For `Cc1ccc2c(N)noc2c1-c1ccc2c(c1)NC(=O)C21CCC(OCCN2CCOCC2)CC1` (stereo not drawn) [Example 13, 6′-(3-amino-6-methylbenzo[d]isoxazol-7-yl)-4-(2-morpholinoethoxy)spiro[cyclohexane-1,3′-indolin]-2′-one] the value was 3.3 nM; for `Cc1ccc2c(NC3CC3)noc2c1-c1cnc2c(c1)NC(=O)C21CCOCC1` [Example 7, 6′-(3-(cyclopropylamino)-6-methylbenzo[d]isoxazol-7-yl)-2,3,5,6-tetrahydrospiro[pyran-4,3′-pyrrolo[3,2-b]pyridin]-2′(1′H)-one], 6.3 nM; for `O=C1Nc2cc(-c3cccc4c(NC5CC5)noc34)ccc2C12CCCC2` [Example 2, 6′-(3-(Cyclopropylamino)benzo[d]isoxazol-7-yl)spiro[cyclopentane-1,3′-indolin]-2′-one], 39 nM.
As to `Cc1ccc2c(NC3CC3)noc2c1-c1ccc2c(c1)NC(=O)C21CCCC1` [Example 1, 6′-(3-(Cyclopropylamino)-6-methylbenzo[d]isoxazol-7-yl)spiro[cyclopentane-1,3′-indolin]-2′-one], the IC50 was 0.9 nM.
For `Cc1ccc2c(NC3CC3)noc2c1-c1ccc2c(c1)NC(=O)C2(C)C` [Example 6, 6-(3-(Cyclopropylamino)-6-methylbenzo[d]isoxazol-7-yl)-3,3-dimethylindolin-2-one] the value was 0.4 nM.
Turning to `Cc1ccc2c(N)noc2c1-c1ccc2c(c1)NC(=O)C21CCOCC1` [Example 11, 6-(3-Amino-6-methylbenzo[d]isoxazol-7-yl)-2′,3′,5′,6′-tetrahydrospiro[indoline-3,4′-pyran]-2-one], the IC50 was 10 nM.
Take `Cc1ccc2c(NC3CC3)noc2c1-c1ccc2c(c1)NC(=O)C21CCC(F)(F)CC1` [Example 5, 6′-(3-(Cyclopropylamino)-6-methylbenzo[d]isoxazol-7-yl)-4,4-difluorospiro [cyclohexane-1,3′-indolin]-2′-one]: the IC50 was found to be 0.06 nM.

Usually IC50 stands for the concentration at which inhibition is half-maximal.
